Measurements taken from patent publication US5527882A, “Polypeptide having an amino acid replaced with N-benzylglycine” (The Regents of the University of California, priority 1994, dated 1996).
Square brackets hold non-standard residues; d marks the D form. Ends that are not written are not given here. Peptide text beside a SMILES is read from it.

Key:
pulmonary circulation = details: rat, in vivo
Source text: (§1) See Vavrek supra for assay methods.
Bradykinin and (NBzlGly^7)-bradykinin were virtually identical with respect to destruction (98-99%) on passage through the pulmonary circulation.

rat blood pressure = assay: Rat blood pressure assay; assay type: in vivo; details: bradykinin = 100%
Source text: | See Vavrek supra for assay methods.

rat uterus = assay: Smooth muscle bioassay: rat uterus contraction; assay type: cell-based; details: bradykinin = 100%
Source text: as §1
Rat Uterus, rat uterus contraction;

guinea pig ileum = assay: Smooth muscle bioassay: guinea pig ileum contraction; assay type: cell-based; details: bradykinin = 100%
Source text: as §1
GP Ileum, guinea pig ileum contraction;

Q: For NC(N)=NCCC[C@H](NC(=O)[C@H](Cc1ccccc1)NC(=O)[C@@H](Cc1ccccc1)NC(=O)[C@H](CO)NC(=O)[C@H](Cc1ccccc1)NC(=O)CNC(=O)[C@@H]1CCCN1C(=O)[C@@H]1CCCN1C(=O)[C@@H](N)CCCN=C(N)N)C(=O)O [[D-Phe^7]-Bradykinin, (D-Phe^7)-bradykinin] (H-RPPGFS[dF]FR-OH), which Destruction (pulmonary circulation) is on record?
A: 36%

Q: RPPGFSPFR [Bradykinin] was tested. Which “Rat Blood Pressure IA, potency relative to bradykinin” value (rat blood pressure; intraaortic administration) did it give?
A: 100%

Q: And the “Rat Blood Pressure IV, potency relative to bradykinin” value (rat blood pressure; intravenous administration)?
A: 100%

Q: What about the “Smooth Muscle Rat Uterus (rat uterus contraction), potency relative to bradykinin” value (rat uterus) of the same compound?
A: 100%

Q: What about the “Smooth Muscle GP Ileum (guinea pig ileum contraction), potency relative to bradykinin” value (guinea pig ileum) of the same compound?
A: 100%
